Test results: patent publication US5703205A, “Laminin a chain polypeptides from the amino terminal golbular domain” (Regents of the University of Minnesota, priority 1993, dated 1997)

What was measured:
Type in all cases: cell-based
[1] = system: HT-1080 human fibrosarcoma cells; assay: Cell spreading assay on coated surfaces; settings: for Cells Spread (%) / Surface Area Occupied by a Cell: wells coated with 300 μl at 100 μg/ml, 2 1/2 hour incubation
Method: Spreading of the adherent cells was evaluated by performing adhesion assays similar to those described above. Twenty-four well tissue culture plates (Becton Dickinson and Co., Lincoln Park, N.J.) were coated with 300 μl of laminin, synthetic peptides, or BSA at 100 μg/ml, then blocked with 2 mg/ml BSA in PBS. Three hundred microliters of a cell suspension at 5×10^4 cells/ml was added to each well, and after a 21/2 hour incubation, nonadherent cells were aspirated out of the wells. Adherent cells were fixed with 2% glutaraldehyde in PBS at 23° C. for one hour. The glutaraldehyde was then removed and the cells were stained by two different techniques. For photographic purposes, the cells were stained with Diff-Quik Solution I (American Scientific Products, McGaw Park, Ill.) for 10 minutes at 23° C. Solution I was removed, then Diff-Quik Solution II was added and the cells were stained for another 10 minutes at 23° C. Wells were washed with PBS, then representative cells were photographed with a Nikon DIAPHOT inverted phase microscope using Panatomic X Film ASA32 (Eastman Kodak, Rochester, N.Y.). Adherent cells to be quantitated for spreading were stained overnight at 23° C. with 500 μl of a solution containing 0.12% (w/v) Coomassie Brilliant Blue R (Sigma Chemical Co.), 5% (v/v) acetic acid, and 50% (v/v) ethanol. Wells were washed three times with 500 μl of PBS and cell spreading was then quantitated by measuring the average surface area occupied by a cell using an Opti-Max Image Analyzer. Thirty cells were measured per well; each experiment was done in quadruplicate and repeated three times. Cells spread the best on peptide R17 and R18 and occupy an area of ~30% of that seen for cells on laminin-coated surfaces. On surfaces coated with peptides R19, R20, and R32, less cell spreading was observed; cells occupied an area ~20% of that seen on intact laminin. Cell spreading on ovalbumin (negative control) was less than 10% of that seen on laminin but the cells were barely adherent under these last conditions.

[2] = system: HT-1080 human fibrosarcoma cells; assay: Direct adhesion of radiolabeled cells to peptide or protein coated microtiter wells; settings: increasing concentrations adsorbed, up to 5 μg/well; 120 minutes
Method: FIG. 3 reports results in microtiter wells adsorbed with increasing concentrations of HPLC-purified peptides R17 (.smallcircle.) R18 (.quadrature.), or R19 (Δ), R20 (.circle-solid.), R32 (.box-solid.), laminin (.tangle-solidup.), or ovalbumin (.diamond.) and radiolabeled HT-1080 human fibrosarcoma cells that were allowed to adhere for 2 hours after being released from flasks with EDTA/trypsin. Each value represents the mean of four separate determinations, and the SEM was less than 10% in each case.
The direct adhesion of cells to protein or peptide coated surfaces was performed as described in Skubitz et al., Exp. Cell Res., 173, 349-360 (1987) and Charonis et al., supra (1988). Briefly, radiolabeled cells were added to 96-well microtiter plates coated with various concentrations of synthetic peptides, laminin, or BSA (0.02 μg/well-50 μg/well from 50 μl solutions) for various lengths of time. After the incubation period, loosely or nonadherent cells were removed by washing the wells three times. Adherent cells weresolubilized and quantitated in a scintillation counter. […] The solubilized cells were then quantitated using a liquid scintillation counter.
In this case, increasing concentrations of the five synthetic peptides were adsorbed to microtiter wells. Radiolabeled HT-1080 human fibrosarcoma cells were incubated in the wells for 120 minutes and the adhesion of cells was quantitated. […]

[3] = system: human renal carcinoma (SN12 PM6); assay: Direct cell adhesion to coated surfaces (Table II); settings: wells coated with 5 μg, 2 hours, % of total cells added
Description: (§1) The human fibrosarcoma HT-1080 cell line was obtained from the ATCC. The murine melanoma K-1735-C10 (low metastatic) and K-1735-M4 (high metastatic) cell lines, murine UV-2237-MM fibrosarcoma cell line, human renal carcinoma SN12 PM-6 (high metastatic) cell line, and human colon carcinoma KM12 C (low metastatic) and KM12 SM (high metastatic) cell lines were originally provided by Dr. I. J. Fidler (M.D., Anderson Hospital, University of Texas Health Sciences Center, Houston, Tex.). The MM fibrosarcoma cell line was maintained in DME (GIBCO Laboratories, Grand Island, N.Y.) containing 10% FBS, the murine melanomas were maintained in DMEM containing 10% calf serum, the human fibrosarcoma cells were maintained in EMEM containing 10% heat inactivated FBS, and the human renal and colon carcinoma cells were grown in EMEM containing 10% FBS, vitamins, and 1 mM sodium pyruvate. Cells were passaged for 4 to 5 weeks and then replaced from frozen stocks of early passage cells to minimize phenotypic drift. Cells were maintained at 37° C. in a humidified incubator containing 5% CO2.
(§2) The direct adhesion of cells to protein or peptide coated surfaces was performed as described in Skubitz et al., Exp. Cell Res., 173, 349-360 (1987) and Charonis et al., supra (1988). Briefly, radiolabeled cells were added to 96-well microtiter plates coated with various concentrations of synthetic peptides, laminin, or BSA (0.02 μg/well-50 μg/well from 50 μl solutions) for various lengths of time. After the incubation period, loosely or nonadherent cells were removed by washing the wells three times. Adherent cells weresolubilized and quantitated in a scintillation counter. More specifically, cultures of cells which were 60-80% confluent were metabolically labeled for 24 hours with the addition of 3 μCi/ml of ^3 H-td (tritiated thymidine). On the day of the assay, the cells were harvested by trypsinization, the trypsin was inhibited by the addition of serum, and the cells were washed free of this mixture and resuspended in DMEM buffered with HEPES at pH 7.2. The adhesion medium also contained 2 mg/ml BSA. The cells were adjusted to a concentration of 3-4×10^4/ ml, and 100 μl of this cell suspension was added to the wells. The assay mixture was then incubated at 37° C. for 120 minutes. At the end of the incubation, the wells were washed with warm DMEM/Hepes containing 2 mg/ml BSA, and the adherent population was solubilized with 0.5N NaOH contained 1% SDS. The solubilized cells were then quantitated using a liquid scintillation counter.
(§3) Microtiter wells were adsorbed with peptide R18, laminin, or BSA and a variety of tumor cell lines were tested for the ability to adhere to the ligands. The six different tumor cell lines selected for this study were of murine or human origin and, in most cases, of either high or low metastatic capacity. As reported in Table II, peptide R18 was also capable of promoting the adhesion of all six cell lines.
(§4) *Microtiter wells were coated with 5 μg of the peptide or proteins and […]

[4] = system: murine melanoma (M4); assay: Direct cell adhesion to coated surfaces (Table II); settings: wells coated with 5 μg, 2 hours, % of total cells added
Description: as §1, §2, §3, §4

[5] = system: human colon carcinoma (K12C); assay: Direct cell adhesion to coated surfaces (Table II); settings: wells coated with 5 μg, 2 hours, % of total cells added
Description: as §1, §2, §3, §4

[6] = system: murine fibrosarcoma (MM); assay: Direct cell adhesion to coated surfaces (Table II); settings: wells coated with 5 μg, 2 hours, % of total cells added
Description: as §1, §2, §3, §4

[7] = system: murine melanoma (C10); assay: Direct cell adhesion to coated surfaces (Table II); settings: wells coated with 5 μg, 2 hours, % of total cells added
Description: as §1, §2, §3, §4

[8] = system: human colon carcinoma (KI2SM); assay: Direct cell adhesion to coated surfaces (Table II); settings: wells coated with 5 μg, 2 hours, % of total cells added
Description: as §1, §2, §3, §4

| Substance | area occupied by cells relative to that on laminin-coated surfaces ([1]; HT-1080 cell spreading, relative to intact laminin) | Cells Spread (%) [1] [%] | Surface Area Occupied by a Cell [1] [um^2] | cell adhesion to coated wells (in words) [2] | Cell Adhesion (%) to Coated Surfaces [3] [%] | Cell Adhesion (%) to Coated Surfaces [4] [%] | Cell Adhesion (%) to Coated Surfaces [5] [%] | Cell Adhesion (%) to Coated Surfaces [6] [%] | Cell Adhesion (%) to Coated Surfaces [7] [%] | Cell Adhesion (%) to Coated Surfaces [8] [%] |
| --- | --- | --- | --- | --- | --- | --- | --- | --- | --- | --- |
| Ovalbumin: negative control protein | less than 10% | 0 | 71 ± 41 | no cell adhesion was observed |  |  |  |  |  |  |
| Laminin |  | 95 | 611 ± 79 |  | 40 | 50 | 25 | 43 | 80 | 36 |
